Experiment [1] concerns the target T1, Alpha-2C adrenergic receptor (Rattus norvegicus, UniProt P22086).
T1 sequence (P22086 whole entry): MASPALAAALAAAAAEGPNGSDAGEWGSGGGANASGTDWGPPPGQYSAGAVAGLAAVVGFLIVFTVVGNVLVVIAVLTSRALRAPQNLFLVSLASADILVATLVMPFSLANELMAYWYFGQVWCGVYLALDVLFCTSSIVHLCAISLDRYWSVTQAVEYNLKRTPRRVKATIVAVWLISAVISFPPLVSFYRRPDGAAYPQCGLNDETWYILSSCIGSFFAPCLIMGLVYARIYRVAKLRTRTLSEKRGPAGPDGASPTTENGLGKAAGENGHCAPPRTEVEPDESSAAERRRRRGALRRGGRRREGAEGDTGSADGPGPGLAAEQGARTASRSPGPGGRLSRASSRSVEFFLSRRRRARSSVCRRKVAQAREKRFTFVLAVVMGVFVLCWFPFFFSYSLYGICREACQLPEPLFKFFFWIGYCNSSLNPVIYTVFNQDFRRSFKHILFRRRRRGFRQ

The target in experiment [2] is 5-hydroxytryptamine receptor 2A (Rattus norvegicus, UniProt P14842).
Experiment [3] addresses D(2) dopamine receptor (Rattus norvegicus, UniProt P61169).
The target in experiment [4] is D(1B) dopamine receptor (Homo sapiens, UniProt P21918).
The target in experiment [5] is D(1A) dopamine receptor (Rattus norvegicus, UniProt P18901).
The target of experiment [6] is T2, Solute carrier family 22 member 2 (Rattus norvegicus, UniProt Q9R0W2).
T2 sequence (Q9R0W2 whole entry): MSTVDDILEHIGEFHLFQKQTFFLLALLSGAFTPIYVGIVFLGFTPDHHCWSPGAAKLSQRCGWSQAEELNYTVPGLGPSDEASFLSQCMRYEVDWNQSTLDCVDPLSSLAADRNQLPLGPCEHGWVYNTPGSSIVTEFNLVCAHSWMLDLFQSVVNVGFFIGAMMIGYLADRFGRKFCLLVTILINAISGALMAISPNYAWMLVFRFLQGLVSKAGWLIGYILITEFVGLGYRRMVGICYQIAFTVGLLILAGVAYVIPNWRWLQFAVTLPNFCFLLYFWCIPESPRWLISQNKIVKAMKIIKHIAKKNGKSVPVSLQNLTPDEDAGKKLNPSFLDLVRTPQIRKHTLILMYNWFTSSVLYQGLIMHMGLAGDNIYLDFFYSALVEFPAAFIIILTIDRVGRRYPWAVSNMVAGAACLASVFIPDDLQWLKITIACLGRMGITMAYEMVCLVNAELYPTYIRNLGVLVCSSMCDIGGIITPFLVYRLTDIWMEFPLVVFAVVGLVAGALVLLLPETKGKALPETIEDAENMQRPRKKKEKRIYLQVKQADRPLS

Bounds are passed on as bounds.

Sequence of 5-hydroxytryptamine receptor 2A (P14842 whole entry): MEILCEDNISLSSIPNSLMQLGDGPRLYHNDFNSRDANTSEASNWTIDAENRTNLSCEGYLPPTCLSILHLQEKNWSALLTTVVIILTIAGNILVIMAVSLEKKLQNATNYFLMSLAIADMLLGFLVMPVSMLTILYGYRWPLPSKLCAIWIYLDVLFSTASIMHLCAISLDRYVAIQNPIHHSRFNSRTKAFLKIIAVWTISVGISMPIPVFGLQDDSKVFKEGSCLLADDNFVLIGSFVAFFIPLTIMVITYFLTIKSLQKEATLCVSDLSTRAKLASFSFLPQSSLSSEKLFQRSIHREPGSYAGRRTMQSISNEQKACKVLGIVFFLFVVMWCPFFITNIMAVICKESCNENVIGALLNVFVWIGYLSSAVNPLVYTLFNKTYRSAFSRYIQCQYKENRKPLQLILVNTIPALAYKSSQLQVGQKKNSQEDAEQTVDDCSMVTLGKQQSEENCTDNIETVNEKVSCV
Sequence of D(2) dopamine receptor (P61169 whole entry): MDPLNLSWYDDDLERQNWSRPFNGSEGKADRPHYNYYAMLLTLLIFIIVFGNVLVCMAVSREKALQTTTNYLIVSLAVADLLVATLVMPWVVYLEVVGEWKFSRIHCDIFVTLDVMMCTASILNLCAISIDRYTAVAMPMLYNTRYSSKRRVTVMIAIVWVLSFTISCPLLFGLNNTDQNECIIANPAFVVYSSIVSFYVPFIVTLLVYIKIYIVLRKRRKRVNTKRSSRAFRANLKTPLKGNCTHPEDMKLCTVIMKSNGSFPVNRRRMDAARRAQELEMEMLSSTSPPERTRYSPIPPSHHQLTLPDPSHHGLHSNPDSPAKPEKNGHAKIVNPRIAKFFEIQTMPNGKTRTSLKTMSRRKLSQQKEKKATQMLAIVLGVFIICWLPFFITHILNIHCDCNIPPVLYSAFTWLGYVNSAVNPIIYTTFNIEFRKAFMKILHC
Sequence of D(1B) dopamine receptor (P21918 whole entry): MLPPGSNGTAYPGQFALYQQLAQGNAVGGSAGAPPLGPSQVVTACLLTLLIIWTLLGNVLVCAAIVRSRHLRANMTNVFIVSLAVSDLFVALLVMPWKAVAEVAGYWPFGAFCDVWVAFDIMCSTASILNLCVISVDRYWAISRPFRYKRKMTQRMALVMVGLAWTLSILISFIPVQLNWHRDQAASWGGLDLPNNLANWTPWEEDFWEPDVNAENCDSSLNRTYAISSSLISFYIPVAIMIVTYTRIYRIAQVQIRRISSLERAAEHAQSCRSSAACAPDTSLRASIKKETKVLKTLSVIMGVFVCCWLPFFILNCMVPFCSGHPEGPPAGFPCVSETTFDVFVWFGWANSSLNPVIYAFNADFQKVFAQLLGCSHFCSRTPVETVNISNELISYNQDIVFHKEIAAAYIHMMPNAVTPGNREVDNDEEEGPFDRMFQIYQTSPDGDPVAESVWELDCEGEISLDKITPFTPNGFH
Sequence of D(1A) dopamine receptor (P18901 whole entry): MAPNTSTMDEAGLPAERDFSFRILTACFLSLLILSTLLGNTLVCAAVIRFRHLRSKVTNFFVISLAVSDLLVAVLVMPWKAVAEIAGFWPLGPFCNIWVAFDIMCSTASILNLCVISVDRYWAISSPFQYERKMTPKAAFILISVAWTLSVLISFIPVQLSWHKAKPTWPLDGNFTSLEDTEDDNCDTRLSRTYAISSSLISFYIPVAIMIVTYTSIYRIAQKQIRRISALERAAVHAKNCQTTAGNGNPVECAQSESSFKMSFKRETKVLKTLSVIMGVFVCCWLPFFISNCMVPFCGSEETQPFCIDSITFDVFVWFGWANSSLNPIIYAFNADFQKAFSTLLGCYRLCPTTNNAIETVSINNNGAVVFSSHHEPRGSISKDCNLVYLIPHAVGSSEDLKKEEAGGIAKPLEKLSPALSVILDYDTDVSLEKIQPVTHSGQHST

As for `C=CCN1CCc2cc(O)c(O)cc2C(c2ccccc2)C1` (stereo not drawn), the inhibitory constant (Ki) (as a rule, the equilibrium dissociation constant of an inhibitor or competing ligand from its target) in experiment [1] was 632 nM; in experiment [2], 3000 nM.

Take `Cc1cccc([C@H]2CN(C)CCc3c2cc(O)c(O)c3Cl)c1`: the inhibitory constant (Ki) was 920 nM in experiment [3]; 7.56 nM in experiment [4]; 1.18 nM in experiment [5]; 295 nM in experiment [1]; 266 nM in experiment [2].

For `Oc1cc2c(cc1O)C(c1ccccc1)CNCC2` (racemic) [(+/-)-SKF-38393], the Ki in experiment [1] was 248 nM; in experiment [2], above 10000 nM.

In the case of `C=CCN1CCc2c(cc(O)c(O)c2Cl)C(c2ccccc2)C1` (racemic) [SKF 82958], the values for the Ki in experiment [1] and in experiment [2] were 558 nM and 1610 nM, respectively.

For `Cc1cccc([C@H]2CN(C)CCc3c2cc(O)c(O)c3Cl)c1` [MCL-201], the Ki in experiment [3] is 2140 nM; in experiment [5] it was 21.3 nM; in experiment [1] it was 632 nM.

Consider `Cc1cccc([C@@H]2CN(C)CCc3c2cc(O)c(O)c3Cl)c1` [MCL-202], for which the inhibition constant Ki in experiment [3] was determined as 515 nM; in experiment [4], 1.53 nM; in experiment [6] it was 3000 nM; in experiment [5], 0.49 nM; in experiment [2], 88.6 nM.

`Cc1cccc([C@@H]2CN(C)CCc3c2cc(O)c(O)c3Br)c1` [MCL-203]: the inhibitory constant (Ki) amounted to 440 nM in experiment [3]; 2.47 nM in experiment [4]; 0.19 nM in experiment [5]; 461 nM in experiment [1]; 224 nM in experiment [2].

As to `C=CCN1CCc2c(cc(O)c(O)c2Br)C(c2cccc(C)c2)C1` (stereo not drawn) [MCL-204], the Ki stood at 83.8 nM in experiment [3]; 12 nM in experiment [4]; 0.11 nM in experiment [5]; 709 nM in experiment [1]; 598 nM in experiment [2].

Take `Cc1cccc(C2CNCCc3c2cc(O)c(O)c3Br)c1` (stereo not drawn) [MCL-205]: the Ki in experiment [3] worked out at 1070 nM; in experiment [4] it was 13.7 nM; in experiment [5] it was 4.41 nM; in experiment [1] it was 338 nM; in experiment [2] it was 1300 nM.

Consider `Cc1ccc(C2CN(C)CCc3c2cc(O)c(O)c3Cl)cc1` (stereo not drawn) [MCL-206], for which the inhibitory constant (Ki) in experiment [3] was 362 nM; in experiment [4] it was 3.96 nM; in experiment [5], 1.93 nM; in experiment [1] it was 250 nM; in experiment [2], 147 nM.

On to `Cc1cccc(C2CNCCc3c2cc(O)c(O)c3Cl)c1` (stereo not drawn) [MCL-209], for which the Ki in experiment [3] stood at 5000 nM; in experiment [4], 0.88 nM; in experiment [5] it was 0.6 nM; in experiment [1] it was 240 nM; in experiment [2] it was 1200 nM.

Take `C=CCN1CCc2c(cc(O)c(O)c2Cl)C(c2cccc(C)c2)C1` (stereo not drawn) [MCL-210]: the inhibitory constant (Ki) in experiment [3] amounted to 119 nM; in experiment [4] it was 9.94 nM; in experiment [5], 0.52 nM; in experiment [1], 877 nM; in experiment [2], 995 nM.

Regarding `CN1CCc2c(cc(O)c(O)c2Br)[C@H](c2cccc(C(F)(F)F)c2)C1` [MCL-211], the inhibitory constant (Ki) is 1050 nM in experiment [3], 8.66 nM in experiment [5], 365 nM in experiment [1] and 68.9 nM in experiment [2].

As to `Cc1ccc(C2CN(C)CCc3c2cc(O)c(O)c3Br)cc1` (stereo not drawn) [MCL-212], the inhibitory constant (Ki) in experiment [3] is 1030 nM; in experiment [4], 4.36 nM; in experiment [5], 19.3 nM; in experiment [1], 493 nM; in experiment [2] it was 124 nM.

Regarding `C=CCN1CCc2c(cc(O)c(O)c2Br)C(c2ccc(C)cc2)C1` (stereo not drawn) [MCL-213], the Ki in experiment [3] was found to be 1700 nM; in experiment [5], 128 nM; in experiment [1], 1090 nM; in experiment [2] it was 977 nM.

For `Cc1ccccc1C1CN(C)CCc2c1cc(O)c(O)c2Br` (stereo not drawn) [MCL-214], the Ki in experiment [3] was found to be 409 nM; in experiment [4], 3.42 nM; in experiment [5] it was 1.1 nM; in experiment [1] it was 186 nM; in experiment [2], 45.8 nM.

Take `C=CCN1CCc2c(cc(O)c(O)c2Br)C(c2ccccc2C)C1` (stereo not drawn) [MCL-215]: the Ki in experiment [3] amounted to 239 nM; in experiment [5], 37.1 nM; in experiment [1], 414 nM; in experiment [2], 742 nM.

In the case of `Cc1ccccc1C1CNCCc2c1cc(O)c(O)c2Br` (stereo not drawn) [MCL-216], the inhibitory constant (Ki) stood at 19.5 nM in experiment [3]; 1.95 nM in experiment [4]; 1.81 nM in experiment [5]; 133 nM in experiment [1]; 398 nM in experiment [2].

For `C=CCN1CCc2c(cc(O)c(O)c2Br)C(c2ccccc2C(F)(F)F)C1` (stereo not drawn) [MCL-217], the Ki in experiment [3], in experiment [5], in experiment [1] and in experiment [2] was above 10000 nM each time.

Regarding `Oc1cc2c(c(Br)c1O)CCNC[C@H]2c1cccc(C(F)(F)F)c1` [MCL-218], the inhibition constant (Ki) in experiment [3] is above 10000 nM; in experiment [5], 1240 nM; in experiment [1], 776 nM; in experiment [2], 992 nM.

Compound `Cc1cccc([C@@H]2CN(C)CCc3c(Cl)cc(O)cc32)c1` [MCL-230A] returned an inhibition constant Ki in experiment [5] above 10000 nM.

Consider `Cc1ccccc1C1CN(C)CCc2c1cc(O)c(O)c2Cl` (stereo not drawn) [NSC_0], for which the inhibitory constant (Ki) came out at 2.32 nM in experiment [4], 0.46 nM in experiment [5], 66.6 nM in experiment [1] and 70.6 nM in experiment [2].

As for `Oc1cc2c(c(Cl)c1O)CCNCC2c1ccccc1` (stereo not drawn) [NSC_1218], the results for the inhibitory constant (Ki) in experiment [1] and in experiment [2] were 509 nM and 995 nM, respectively.

`CN1CCc2cc(Cl)c(O)cc2C(c2ccccc2)C1` (stereo not drawn) [NSC_5018]: the inhibition constant (Ki) in experiment [1] is 208 nM; in experiment [2] it was 10.8 nM.

These data come from BindingDB's records for doi:10.1016/s0014-2999(03)02008-9 (Harvard University, 2003).
